Patent publication US4094908A, “Alpha-substituted benzhydrol derivatives” (Richter Gedeon Vegyeszeti Gyar Rt., priority 1973, dated 1978)

How the values were obtained:
[1] = Toxicity: perished animals/tested animals; format: in vivo
Source text: Despite its disadvantageous properties, phenobarbital is widely used in the treatment of neonatal jaundice. In order to enable a better comparison, Table 8 indicates the respective dosages in which phenobarbital causes lethal respiration paralysis, while the compounds according to the invention are completely innocuous.

[2] = neonatal jaundice; in words; cited from earlier work
central nervous system = format: in vivo, mice and rats
Source text: The central nervous activities of the compounds according to the invention were examined on mice and rats with the following methods: electroshock (Swinyard, E. A., Brown, W. C., Goodman, L. S.: J. Pharmacol. Exp. Ther. 106, 319, 1952), metrazol spasm (Everett, G. M., Richards, R. K.: J. Pharmacol. Exp. Ther. 81, 402: 1944), thiosemicarbezide spasm (Da Venzo, J. P. Greig, M. E., Cormin, M. A.: Amer. J. Physiol. 201, 833: 1961), strychnine spasm (Kerley, T. L., Richards, A. G., Begley, R. W., Abreu, B. B. Wesver, L. C.: J. Pharmacol. Exp. Ther. 132, 360: 1961), nicotine spasm (Stone, C. A., Mecklenburg, K. L., Torhans, M. L.: Arch. Int. Pharmacodyn. 117, 419: 1958), rotarod test (Kinnard, W. C., Carr, C. J.: J. Pharmacol. Expt. Ther. 121, 3, 54: 1957), physistigmine lethality preventing effect (Nose, T., Kojima, M.: Europ. J. Pharmacol. 10, 83: 1970), yohimbine potentiation effect (Quinton, R. M.: Brit. J. Pharmacol. 21, 51: 1963), and analgesic activity (Bianchi, G., Franceschini, J.: Brit. J. Pharm. Chemother. 9, 280: 1954). As reference substance, phenobarbital was used. […]

bilirubin elimination = test: Bilirubin elimination under in vivo conditions; design: species or system rats; details: pre-treated rats; 30 mg./kg. free bilirubin i.v.
Protocol: When examining the bilirubin elimination under in vivo conditions on rats pre-treated with E 15 or phenobarbital, respectively, and challenged intravenously with a dosage of 30 mg./kg. of free bilirubin, the following biological halving periods were determined (Krueger, H., Higginson, J.: Proc. Soc. Exp. Biol. Med. 107, 43, 1961): […]

hexobarbital oxidase = test: Enzyme-inducing potency: in vivo hexobarbital oxidase activity (duration of hexobarbital narcosis); design: species or system Female Wistar rats; details: 24 hours before hexobarbital
Protocol: […] 24 and 48 hours after the administration of the active agent, respectively, the animals were narcotized with 40 mg./kg. i.v. dosage of hexobarbital sodium, and the time elapsed until complete wakening was measured (Noordhock, J.: Eur. J. Pharmacol. 3, 242, 1968). The data were recorded, and the mean values, the standard errors, as well as the percentage increase with respect to the controls were calculated for each group. […] The hexobarbital concentration of the plasma, measured on the instant of wakening, was the same for both the treated and the control animals, thus the increase of narcosis period was not due to a certain central nervous interaction (Jori, A., Bianchatti, A., Presentini, P. E.: Biochem. Pharmacol. 19, 2687, 1970).
The enzyme-inducing potency of the new compounds was determined by several methods. One of these methods was the in vivo measurement of hexobarbital oxidase activity.
The decrease of narcosis period is due to the fact that the new compounds according to the invention accelerate the elimination of hexobarbital, a foreign substance, from the body. When administering the compound to be tested in a single dosage and measuring the duration of hexobarbital narcosis 24 hours after the administration, the following results are obtained: […]

With `CCC1(c2ccccc2)C(=O)NC(=O)NC1=O` [Phenobarbital, reference compound] the Perished animals/tested animals ([1]; 40 mg./kg) was 0/10, the Perished animals/tested animals ([1]; 80 mg./kg) was 0/10 and the Perished animals/tested animals ([1]; 160 mg./kg) was 4/10. For the same compound, the Perished animals/tested animals ([1]; 320 mg./kg) was 9/10, the Perished animals/tested animals ([1]; 640 mg./kg) was 10/10 and the Side effects [2] was “toxic (sedative and respiration-paralyzing) side effects”. The Central nervous effects (central nervous system; in words, in contrast with phenobarbital) was “hypnotic and respiration paralyzing effects”, the Central nervous activity (central nervous system; oral 40, 120 and 150 mg./kg., phenobarbital effect even at 40 mg./kg.) was “strong anticonvulsive muscle-incoordinating and sedative effects” and the “t1/2 (biological halving period of bilirubin)” value (bilirubin elimination) was 13 min. The “Sleeping period ± standard error” value (hexobarbital oxidase; 5 mg./kg. single dosage) was 20.1 ± 2.0, the “Sleeping period ± standard error” value (hexobarbital oxidase; 10 mg./kg. single dosage) was 14.3 ± 1.4 and the “Sleeping period ± standard error” value (hexobarbital oxidase; 20 mg./kg. single dosage) was 14.0 ± 1.3. The “Sleeping period ± standard error” value (hexobarbital oxidase; 40 mg./kg. single dosage) was 12.5 ± 1.2.
